This is an account of results in patent publication US20240174663A1, “PYRIMIDINE OR PYRIDINE DERIVATIVES USEFUL AS HCN2 MODULATORS” (King's College London, priority 2021, published 2024).

Test [1] concerns the target T1, HCN2 (Homo sapiens, UniProt Q9UL51).
T1 sequence (Q9UL51 1-889): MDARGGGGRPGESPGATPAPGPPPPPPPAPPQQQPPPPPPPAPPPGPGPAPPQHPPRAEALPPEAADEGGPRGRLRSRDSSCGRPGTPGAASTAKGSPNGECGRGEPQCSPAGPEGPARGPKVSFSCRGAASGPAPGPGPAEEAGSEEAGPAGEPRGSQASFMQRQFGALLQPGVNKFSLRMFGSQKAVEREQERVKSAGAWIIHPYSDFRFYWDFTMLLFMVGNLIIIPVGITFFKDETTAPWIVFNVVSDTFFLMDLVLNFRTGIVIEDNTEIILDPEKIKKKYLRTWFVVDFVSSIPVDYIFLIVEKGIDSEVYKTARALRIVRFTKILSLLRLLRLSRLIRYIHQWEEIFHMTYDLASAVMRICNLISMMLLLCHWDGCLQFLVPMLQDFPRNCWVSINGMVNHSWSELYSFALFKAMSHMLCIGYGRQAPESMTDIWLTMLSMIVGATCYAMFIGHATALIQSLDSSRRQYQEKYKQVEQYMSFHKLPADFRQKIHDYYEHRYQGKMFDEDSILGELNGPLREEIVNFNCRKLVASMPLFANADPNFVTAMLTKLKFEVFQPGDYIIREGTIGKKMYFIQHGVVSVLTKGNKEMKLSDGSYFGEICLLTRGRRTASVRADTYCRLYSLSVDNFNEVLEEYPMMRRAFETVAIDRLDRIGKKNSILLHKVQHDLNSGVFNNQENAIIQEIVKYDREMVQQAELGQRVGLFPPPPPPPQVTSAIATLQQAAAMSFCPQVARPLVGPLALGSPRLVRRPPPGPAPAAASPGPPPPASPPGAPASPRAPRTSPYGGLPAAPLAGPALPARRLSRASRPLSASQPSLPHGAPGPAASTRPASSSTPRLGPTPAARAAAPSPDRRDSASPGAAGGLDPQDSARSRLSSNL
As to the kind of experiment: HCN2 assay using PatchXpress 7000A (PX protocol, Example 25). In kind it is cell-based. The note with it: room temperature. On the procedure: (§1) Example 25: Assay for HCN1 HCN2 and HCN4 Using PatchXpress 7000A
(§2) Solutions for recording HCN currents were:
The membrane voltage was then stepped back to −30 mV for a further 8 seconds.
(§3) The peak inward current measured at the end of the pulse to −110 mV (HCN1 and HCN2) or −130 mV (HCN4) was measured and any leak current subtracted to calculate the HCN current. The HCN current amplitude was measured after each control or compound addition and normalized to the control amplitude (Control A).
(§4) All experiments were performed at room temperature (approximately 22° C.).
(§5) Each test compound concentration was applied to the cell for seven (7) minutes, at which point the next cumulative concentration was applied.

Test [2] has as its target T2, HCN4 (Homo sapiens, UniProt Q9Y3Q4).
T2 sequence (Q9Y3Q4 1-1203): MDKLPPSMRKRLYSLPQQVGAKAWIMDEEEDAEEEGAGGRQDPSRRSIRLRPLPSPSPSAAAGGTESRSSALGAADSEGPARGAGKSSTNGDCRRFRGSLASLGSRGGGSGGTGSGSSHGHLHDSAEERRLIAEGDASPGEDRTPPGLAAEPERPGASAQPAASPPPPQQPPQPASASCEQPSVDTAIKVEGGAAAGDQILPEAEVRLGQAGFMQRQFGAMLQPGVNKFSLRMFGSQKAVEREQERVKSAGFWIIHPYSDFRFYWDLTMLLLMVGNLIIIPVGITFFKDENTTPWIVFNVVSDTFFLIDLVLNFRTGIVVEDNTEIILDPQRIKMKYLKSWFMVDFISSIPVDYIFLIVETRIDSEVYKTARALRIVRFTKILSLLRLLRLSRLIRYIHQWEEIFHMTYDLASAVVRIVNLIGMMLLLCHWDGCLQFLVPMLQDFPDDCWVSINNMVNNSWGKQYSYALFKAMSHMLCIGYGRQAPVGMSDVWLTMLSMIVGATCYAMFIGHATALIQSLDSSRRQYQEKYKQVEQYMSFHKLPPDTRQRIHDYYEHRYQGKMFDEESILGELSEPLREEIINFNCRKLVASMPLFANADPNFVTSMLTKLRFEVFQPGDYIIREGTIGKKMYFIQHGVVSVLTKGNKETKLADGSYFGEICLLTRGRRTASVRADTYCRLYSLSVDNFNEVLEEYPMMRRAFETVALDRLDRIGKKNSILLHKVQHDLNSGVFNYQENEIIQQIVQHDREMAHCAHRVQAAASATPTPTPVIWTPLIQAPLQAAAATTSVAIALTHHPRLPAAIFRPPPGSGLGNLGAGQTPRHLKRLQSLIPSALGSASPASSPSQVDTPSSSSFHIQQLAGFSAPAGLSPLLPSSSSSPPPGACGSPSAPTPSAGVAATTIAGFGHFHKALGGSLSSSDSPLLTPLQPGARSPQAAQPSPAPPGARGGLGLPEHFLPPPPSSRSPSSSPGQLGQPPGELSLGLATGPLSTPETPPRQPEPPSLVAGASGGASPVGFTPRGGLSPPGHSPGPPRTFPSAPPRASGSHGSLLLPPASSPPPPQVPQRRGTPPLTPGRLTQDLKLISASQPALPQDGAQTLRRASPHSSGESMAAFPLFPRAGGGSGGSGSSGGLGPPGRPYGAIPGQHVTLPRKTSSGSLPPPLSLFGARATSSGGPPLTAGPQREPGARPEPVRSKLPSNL
As to the kind of experiment: HCN4 assay using PatchXpress 7000A (PX protocol, Example 25). In kind it is cell-based. The conditions noted are these: room temperature. The procedure:
as §1, §2, §3, §4, §5

pIC50: −log10 of the molar value. Where a name gives a salt, the structure may show the parent alone.

Take `CC(c1ccccn1)[C@H](N)c1ncccc1-c1noc2ccccc12` (single isomer, unassigned) [Example 12, hydrochloride]: in test [1], the negative-log IC50 (pIC50) (as a rule, −log10 of the IC50, conventionally taken in molar units) is 5.35.

Take `CC(c1ccccn1)[C@H](N)c1ncccc1-c1noc2ccccc12` (single isomer, unassigned) [Example 13, hydrochloride]: in test [1], the negative-log IC50 (pIC50) is 5.02.

For `Cn1nc(-c2ccccc2[C@@H](N)Cc2ccccn2)c2cccnc21` [Example 1, (S)-1-[2-(1-Methyl-1H-pyrazolo[3,4-b]pyridine-3-yl)phenyl]-2-(pyridin-2-yl)ethan-1-amine hydrochloride], the pIC50 in test [1] is 4.77.

For `N[C@@H](Cc1ccccn1)c1ccccc1-c1noc2ncccc12` [Example 2, (S)-1-[2-(Isoxazolo[5,4-b]pyridine-3-yl)phenyl]-2-(pyridin-2-yl)ethan-1-amine], the negative logarithm of the IC50 (pIC50) in test [1] was 4.99. Against the preceding compound, the pIC50 is 0.22 log units higher.

With `Cn1nc(-c2cccnc2[C@@H](N)Cc2ccccn2)c2ccccc21` [Example 3, (S)-1-[3-(1-Methyl-1H-indazol-3-yl)pyridine-2-yl]-2-(pyridin-2-yl)ethan-1-amine hydrochloride], the pIC50 in test [1] was 5.24; in test [2], less than 4.52.

`N[C@@H](Cc1ccccn1)c1cccnc1-c1noc2ccccc12` [Example 5, (S)-1-[2-(Benzoy[d]isoxazol-3-yl)pyridine-3-yl}-2-(pyridine-2-yl)ethan-1-amine hydrochloride] showed a pIC50 in test [1] of 4.72.

As for `N[C@@H](Cc1ccccn1)c1ncccc1-c1noc2ccccc12` [Example 6, (S)-1-[3-(Benzoy[d]isoxazol-3-yl)pyridine-2-yl}-2-(pyridine-2-yl)ethan-1-amine hydrochloride], the pIC50 in test [1] was 5.66; in test [2], less than 4.52.

As to `N[C@@H](Cc1ccccn1)c1ccncc1-c1noc2ccccc12` [Example 7, (S)-1-[3-(Benzoy[d]isoxazol-3-yl)pyridine-4-yl}-2-(pyridine-2-yl)ethan-1-amine hydrochloride], the negative logarithm of the IC50 (pIC50) in test [1] was 4.86.

Consider `Cn1nc(-c2ccccc2[C@@H](N)Cc2ccccn2)c2ccncc21` [Example 8, (S)-1-[2-(1-Methyl-1H-pyrazolo[3,4-c]pyridine-3-yl)phenyl]-2-(pyridine-2-yl)ethan-1-amine hydrochloride], for which the pIC50 in test [1] was 5.10; in test [2], less than 4.52.

As for `Cc1ccc(-c2noc3ccccc23)c([C@@H](N)Cc2ccccn2)n1` [Example 9, (S)-1-[3-(Benzoy[d]isoxazol-3-yl)-6-methylpyridine-2-yl]-2-(pyridine-2-yl)ethan-1-amine hydrochloride], the negative logarithm of the IC50 (pIC50) in test [1] is 5.49; in test [2], less than 4.52.

Turning to `N#Cc1cccc(C[C@H](N)c2ncccc2-c2noc3ccccc23)n1` [Example 10, (S)-6-{2-Amino-2-[3-(benzoy[d]isoxazol-3-yl)pyridine-2-yl]ethyl}pyridine-2-carbonitrile hydrochloride], the pIC50 in test [1] was 5.72; in test [2] it was 4.78.

As for `Cc1cccc(C[C@H](N)c2ncccc2-c2noc3ccccc23)n1` [Example 11, (S)-1-[3-(Benzoy[d]isoxazol-3-yl)pyridine-2-yl]-2-(6-methylpyridine-2-yl)ethan-1-amine hydrochloride], the pIC50 is 5.29 in test [1] and 4.64 in test [2].

`N[C@@H](Cc1ccccn1)c1ccccc1-c1noc2cnccc12` [Example 14, (S)-1-[2-(Isoxazolo[5,4-c]pyridine-3-yl)phenyl]-2-(pyridin-2-yl)ethan-1-amine] gave a negative logarithm of the IC50 (pIC50) in test [1] of 4.91.

In the case of `Cc1cccc(C[C@H](N)c2ccccc2-c2nn(C)c3cnccc23)n1` [Example 15, (S)-1-[2-(1-Methyl-1H-pyrazolo[3,4-c]pyridine-3-yl)phenyl]-2-(6-methylpyridine-2-yl)ethan-1-amine hydrochloride], the negative logarithm of the IC50 (pIC50) in test [1] was 5.11; in test [2] it was less than 4.52.

Take `Cn1nc(-c2ccccc2[C@@H](N)Cc2cccc(C#N)n2)c2ccncc21` [Example 16, (S)-6-{2-Amino-2-[2-(1-methyl-1H-pyrazolo[3,4-c]pyridine-3-yl)phenyl]ethyl}pyridine-2-carbonitrile]: the negative logarithm of the IC50 (pIC50) in test [1] was 5.17; in test [2] it was less than 4.52.

In the case of `NC(=O)c1cccc(C[C@H](N)c2ncccc2-c2noc3ccccc23)n1` [Example 17, (S)-6-{2-Amino-2-[3-(benzoy[d]isoxazol-3-yl)pyridine-2-yl]ethyl}pyridine-2-carboxamide], the negative-log IC50 (pIC50) was 5.19 in test [1] and less than 4.52 in test [2].

For `CN(C)C(=O)c1cccc(C[C@H](N)c2ncccc2-c2noc3ccccc23)n1` [Example 18, (S)-6-{2-Amino-2-[3-(benzoy[d]isoxazol-3-yl)pyridine-2-yl]ethyl}-N,N-dimethylpyridine-2-carboxamide], the figures for the pIC50 in test [1] and in test [2] were 4.95 and less than 4.52, respectively.

Turning to `N[C@@H](Cc1cccc(OCCO)n1)c1ncccc1-c1noc2ccccc12` [Example 19, (S)-2-[(6-{2-Amino-2-[3-(benzoy[d]isoxazol-3-yl)pyridine-2-yl]ethyl}pyridine-2-yl)oxy]ethano-1-ol], the negative logarithm of the IC50 (pIC50) was 5.40 in test [1] and less than 4.52 in test [2].

Regarding `N[C@@H](Cc1ncccn1)c1ncccc1-c1noc2ccccc12` [Example 20, (S)-1-[3-(Benzo[d]isoxazol-3-yl)pyridine-2-yl]-2-(pyrimidin-2-yl)ethan-1-amine], the pIC50 in test [1] was 5.05; in test [2], less than 4.52.

For `CN(C)C(=O)CCc1cccc(C[C@H](N)c2ncccc2-c2noc3ccccc23)n1` [Example 21, (S)-3-(6-{2-Amino-2-[3-(benzo[d]isoxazol-3-yl)pyridine-2-ylethyl}priding-2-yl)-N,N-dimethylpropanamide hydrochloride], the pIC50 in test [1] was 5.05; in test [2] it was less than 4.52.

As for `Cc1ccc(Br)nc1C[C@H](N)c1ncccc1-c1noc2ccccc12` [Example 22, (S)-1-[3-(Benzo[d]isoxazol-3-yl)pyridine-2-yl]-2-(6-bromo-3-methylpyridine-2-yl)ethan-1-amine hydrochloride], the pIC50 in test [1] was 5.80; in test [2] it was 4.99.

`N[C@@H](Cc1ncccc1F)c1ncccc1-c1noc2ccccc12` [Example 23, (S)-1-[3-(Benzo[d]isoxazol-3-yl)pyridine-2-yl]-2-(3-fluoropyridine-2-yl)ethan-1-amine hydrochloride]: the pIC50 in test [1] was 5.77; in test [2], 5.02.

In test [1], `Cc1ccc(F)c(C[C@H](N)c2ncccc2-c2noc3ccccc23)n1` [Example 24, (S)-1-[3-(Benzo[d]isoxazol-3-yl)pyridine-2-yl]-2-(3-fluoro-6-methylpyridine-2-yl)ethan-1-amine hydrochloride] showed a pIC50 of 5.38.
